# Assay results reported in ChEMBL document CHEMBL2321710, “Bioactive polyhydroxylated steroids from the Hainan soft coral Sinularia depressa Tixier-Durivault” (Bioorg Med Chem Lett, 2013).
# What was measured:
# [1] = target: Amyloid-beta precursor protein (Homo sapiens) (UniProt P05067); experiment: Neuroprotectivie activity against amyloid beta (25 to 35)-induced toxicity in human SH-SY5Y cells assessed as increase in cell viability at 10 uM incubated for 2 hrs prior to amyloid beta (25 to 35)-challenge measured after 24 hrs by MTT assay relative to control; assay type: functional, cell-based
# [2] = target: T1, Tyrosine-protein phosphatase non-receptor type 1 (Homo sapiens, UniProt P18031); experiment: Inhibition of human PTP1B
# T1 sequence (P18031 whole entry): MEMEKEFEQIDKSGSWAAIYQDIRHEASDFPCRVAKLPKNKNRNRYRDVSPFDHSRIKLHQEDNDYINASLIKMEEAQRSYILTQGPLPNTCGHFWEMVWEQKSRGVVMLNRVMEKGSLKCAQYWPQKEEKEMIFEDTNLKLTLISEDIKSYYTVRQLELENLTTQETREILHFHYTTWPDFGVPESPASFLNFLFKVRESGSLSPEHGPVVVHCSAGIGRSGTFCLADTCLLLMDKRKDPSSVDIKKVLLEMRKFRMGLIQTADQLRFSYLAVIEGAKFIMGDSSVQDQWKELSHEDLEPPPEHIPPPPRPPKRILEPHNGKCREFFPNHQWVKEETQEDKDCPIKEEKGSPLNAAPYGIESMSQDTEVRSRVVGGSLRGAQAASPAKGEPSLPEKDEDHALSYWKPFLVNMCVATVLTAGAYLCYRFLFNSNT
# Staphylococcus aureus = experiment: Antibacterial activity against Staphylococcus aureus Newman […]; assay type: functional, organism-based
# [3] = Neuroprotectivie activity against serum deprivation-induced toxicity in human SH-SY5Y cells assessed as increase in cell viability at 10 uM relative to control; assay type: functional
# Amyloid-beta precursor protein (Homo sapiens), sequence (P05067 whole entry): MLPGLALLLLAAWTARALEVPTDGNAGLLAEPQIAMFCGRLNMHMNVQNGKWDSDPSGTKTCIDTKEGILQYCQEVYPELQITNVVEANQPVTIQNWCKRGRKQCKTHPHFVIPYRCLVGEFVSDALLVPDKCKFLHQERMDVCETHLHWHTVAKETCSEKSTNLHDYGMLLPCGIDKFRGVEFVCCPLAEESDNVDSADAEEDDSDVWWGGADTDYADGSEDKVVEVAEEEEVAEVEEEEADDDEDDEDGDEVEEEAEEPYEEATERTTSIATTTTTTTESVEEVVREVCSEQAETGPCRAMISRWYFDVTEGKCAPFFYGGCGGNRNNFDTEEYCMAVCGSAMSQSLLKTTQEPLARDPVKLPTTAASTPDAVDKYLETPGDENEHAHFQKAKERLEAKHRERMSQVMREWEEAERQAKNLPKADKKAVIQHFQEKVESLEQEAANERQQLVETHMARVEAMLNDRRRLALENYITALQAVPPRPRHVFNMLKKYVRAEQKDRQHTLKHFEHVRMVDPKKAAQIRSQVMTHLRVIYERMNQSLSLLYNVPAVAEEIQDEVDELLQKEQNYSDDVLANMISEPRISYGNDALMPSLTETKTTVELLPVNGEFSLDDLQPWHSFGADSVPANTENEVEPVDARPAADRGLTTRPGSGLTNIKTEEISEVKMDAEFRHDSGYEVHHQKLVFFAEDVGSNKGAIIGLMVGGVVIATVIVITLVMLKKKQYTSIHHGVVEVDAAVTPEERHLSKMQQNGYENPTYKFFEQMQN
Compound,IC50 [2],MIC50 (Staphylococcus aureus),other results
C=C(CC[C@@H](C)[C@H]1CC[C@@H]2[C@]1(C)C[C@H](O)[C@@H]1[C@@]3(C)CC[C@H](O)[C@@H](C)[C@@H]3CC[C@@]21O)C(C)C,,,Activity [1]: 20.1%
C=C(CC[C@@H](C)[C@H]1CC[C@@H]2[C@]1(C)CC[C@@H]1[C@@]3(C)CC[C@H](OC(C)=O)[C@@H](C)[C@@H]3CC[C@@]21O)C(C)C,22.7 µM,,
C=C(CC[C@@H](C)[C@H]1CC[C@H]2[C@@H]3[C@@H](OC(C)=O)C=C4C[C@@H](O)CC[C@]4(CO)[C@H]3CC[C@]12C)C(C)C,,1000 µM,
C=C(CC[C@@H](C)[C@H]1CC[C@H]2[C@@H]3CC[C@H]4[C@H](C)[C@@H](O)CC[C@]4(C)[C@H]3CC[C@]12C)C(C)C,19.5 µM,,
C[C@@H]1O[C@@H]1P(=O)(O)O [FOSFOMYCIN SODIUM],,,IC50 (Staphylococcus aureus): 137 µM
C=C(CC[C@@H](C)[C@H]1CC[C@@H]2[C@]1(C)CC[C@H]1[C@]23CC[C@]2(C[C@@H](O)CC[C@]12C)OO3)C(C)C,,500 µM,
C=C(CC[C@@H](C)[C@H]1CC[C@H]2[C@@H]3CCC4=CC(=O)CC[C@]4(C)[C@H]3CC[C@]12C)C(C)C,15.3 µM,,Activity [1]: 16.6%; Activity [3]: 16.9%
C=C(CC[C@@H](C)[C@H]1CC[C@H]2[C@@H]3C[C@@H](O)[C@@]4(O)C[C@@H](O)CC[C@]4(COC(C)=O)[C@H]3CC[C@]12C)C(C)C [ARMATINOL B],,15.6 µM,
